Data: patent US20260284079A1, “LIPID PRODRUGS OF ALLOPR[…] USES THEREOF” (Seaport Therapeutics, Inc., priority 2023, published 2026)

Key:
[1] = Multiple ascending dose (MAD) study, PK (Example 1 Part 3); conditions: allopregnanolone and combined allopregnanolone
[2] = TSST study safety and tolerability (Example 2); type: in vivo, human
Description: A double-blind, placebo-controlled study was performed in 80 healthy participants to determine the effects of a single dose of Compound 1 in a validated and standardized behavioral challenge, the Trier Social Stress Test (TSST). The TSST is a reliable behavioral model used to examine the neurobiological response to acute stress in humans, whereby an acute stress (and associated acute stress response) is induced under experimentally controlled conditions. The TSST induces stress through public speaking. It incorporates social evaluation and unpredictability, by obliging the person to speak in front of an unresponsive audience and is further followed by a surprise mental arithmetic test. The TSST combines elements of a social-evaluative threat and uncontrollability to produce a consistent and robust physiological and psychological stress response in humans. On the day of the study, the participant was tasked with a speech prompt, for which they had 3 minutes to prepare. The participant was then required to present the speech for 5 minutes to a panel while under the pretense of being recorded. Following the speech, participants were given an unexpected mental arithmetic task. The TSST is more fully described in Allen A et al., Neurobiol. Stress (2017), February; 6:113-126.
The study included a validation cohort and a randomized cohort. The validation cohort (n=10) was given placebo for the purposes of validating the TSST and study endpoints. The randomized cohort […] were randomized and stratified by sex to placebo or 375 mg of Compound 1 in a 1:1 ratio. The cohorts are described in Table 14. An overview of the TSST study design is also depicted in FIG. 4C.
The objective of the study was to evaluate the efficacy of Compound 1 vs. placebo in blunting the response to endpoints measured during and after the TSST procedure. The primary efficacy endpoint was the change from baseline (before TSST procedure) to the peak (maximum change) in salivary cortisol levels as measured before, during, and after the TSST procedure. The primary outcome for determining this was salivary cortisol levels. The key secondary outcomes were be the Numerical Rating Scale (NRS) for stress, anxiety, fear, embarrassment, and excitement. Additional secondary outcomes were the State Trait Anxiety Index (STAI), and blood pressure. Safety and tolerability (i.e., incidence, severity, and duration of treatment-emergent adverse events (TEAEs), serious adverse events (SAEs), and incidence of other clinically relevant signs) were also monitored. Prior to the TSST, a post-dose sample was collected for pharmacokinetic analysis.

[3] = Columbia-Suicide Severity Rating Scale (C-SSRS); type: in vivo, human; conditions: parts 1-3
Description: The Columbia-Suicide Severity Rating Scale (C-SSRS) is a validated tool designed to quantify the severity of suicidal ideation and behavior. This scale was administered by individuals who have received training in its administration, as described in further detail at https://cssrs.columbia.edu/the-columbia-scale-c-ssrs/about-the-scale/.

[4] = Body sway (posturography); type: in vivo, human; conditions: MAD
Description: Body Sway is assessed as a measure of a subject's slight postural movements in order to retain balance either statically in a neutral position or dynamically while in motion. Body Sway is typically measured by total displacement of the center of body mass relative to the base of support over time. Posturography is an objective, sensitive, reliable, and non-invasive method designed to assess the effects of drugs and alcohol on body sway and vigilance. Body sway is recorded using a computerized force-platform. Using specific positioners, bare feet subjects are asked to stand still and motionless, looking at a cue placed in front of them. Measurement of body sway (one minute with eyes open and one minute with eyes closed) is recorded as recommended by the International Society of Postuography. The length and area of the postural oscillations are then calculated.

[5] = Sleep Quality Scale (SQS); type: in vivo, human; conditions: all cohorts
Description: The scale was administered in the morning, and subjects are asked to rate their sleep quality of the past 7 days, ranging from terrible (score of 0), poor (scores of 1-3), fair (scores of 4-6), good (scores of 7-9), and excellent (score of 10).

[6] = Stanford Sleepiness Scale (SSS) and MOAA/S; type: in vivo, human
From the text: Part 1 Exploratory Objectives: To characterize the pharmacodynamic (PD) effects, and the PK/PD relationship, of Compound 1 on select clinical outcome assessments (COAs) of central nervous system effects following ascending single oral doses of Compound 1 (e.g., Stanford Sleepiness Scale (SSS), Modified Observer's Assessment of Alertness/Sedation Scale (MOAA/S), Sleep Quality Scale (SQS)). Part 1 Exploratory Endpoints: Changes from Baseline in SSS, MOAA/S, and/or SQS.
Part 3 Exploratory Objective: to characterize the PD effects, and the PK/PD relationships of Compound 1 on select effects following multiple oral doses of Compound 1. Part 3 Exploratory Endpoints: changes from baseline in qEEG, SSS, MOAA/S, the SQS, Cogstate, Body Sway, and video-oculography (VOG) assessment.
Participants were assessed using metrics as outlined below. The SSS is a one item self-report questionnaire that measures and quantifies progressive steps in the level of sleepiness throughout the day. Subjects select one of seven statements that best represents their level of perceived sleepiness at a given timepoint, as depicted in Table 7.
The MOAA/S is a clinical outcome assessment that measures a subject's level of alertness/sedation as determined by a rater; in its modified form, it uses only the responsiveness component of the original Observer's Assessment of Alertness/Sedation Scale. Responsiveness, as a measure of sedation, was assessed and scored on a scale of 0 to 5 as outlined in Table 8.

SMILES: CCCCCCCC(=O)OCC(COC(=O)CCCCCCC)OC(=O)CC(C)CC(=O)OCOC(=O)O[C@@H]1CC[C@@]2(C)[C@@H](CC[C@@H]3[C@@H]2CC[C@]2(C)[C@@H](C(C)=O)CC[C@@H]32)C1 (stereo partly shown) [Compound 1]
- accumulation upon multiple dosing ([1]; once daily): minimal accumulation
- time to steady state ([1]; once daily administration): Day 2 and Day 3
- tolerability in the TSST study ([2]; single 375 mg dose): well tolerated
- TEAE dizziness ([2]; single 375 mg, placebo 3%): 20%
- TEAE headache ([2]; single 375 mg, placebo 7.7%): 7.3%
- TEAE somnolence ([2]; single 375 mg, placebo 13%): 29%
- suicidal ideation or suicidal behavior [3]: No subjects across all parts (1-3) reported any suicidal ideation or suicidal behavior
- effects on body sway ([4]; day 1): Slight effects
- effects on body sway ([4]; day 7): absent
- sleep quality as measured by SQS [5]: no meaningful improvements or worsening
- change from baseline in SSS and MOAA/S ([6]; Cohort 6 (Part 3), 500 mg, compared to lower doses): greater magnitude of effect from baseline
- change from baseline in SSS and MOAA/S score ([6]; Cohorts 1, 2, 2b (Part 1), single doses): dose-dependent increase from baseline in the Stanford Sleepiness Scale (SSS) and a decrease from baseline in the MOAA/S score
- change from baseline in SSS and MOAA/S ([6]; Cohorts 4, 5, 7, 8 (Part 3), 250 mg and 375 mg, early days of dosing): low magnitude of change from baseline
- time of maximum changes in SSS and MOAA/S ([6]; Part 1): 3-5 hours post-dose
- time of return to baseline levels of SSS and MOAA/S ([6]; Part 1, all treatment groups): ≤ 12 hours post-dose
- difference in mean change from baseline between fed (HF or LF) and fasted states ([6]; cohort 3, 140 mg): no apparent difference
